This passage reports IC50 and EC50 results from patent publication US9546153B2, “Bicyclic heterocycle substituted pyridyl compounds useful as kinase modulators” (BRISTOL-MYERS SQUIBB COMPANY, priority 2012, dated 2017).

For test [1], the target named is IRAK4 (Homo sapiens (Human), UniProt Q9NWZ3). Kind of test: IRAK4 Inhibition Assay. The settings on record: ATP 500 μM; IRAK4 0.6 nM; 60 min at room temperature. The test is classed as biochemical. How it is done:
The assays were performed in U-bottom 384-well plates. […] The reaction was initiated by the combination of IRAK4 with substrates and test compounds. The reaction was incubated at room temperature for 60 min. and terminated by adding 45 μL of 35 mM EDTA to each sample. The reaction mixture was analyzed on the Caliper LABCHIP® 3000 (Caliper, Hopkinton, Mass.) by electrophoretic separation of the fluorescent substrate and phosphorylated product.

The test system of test [2] is TLR2 induced IL-6 in peripheral blood mononuclear cells (PBMCs). As to the kind of experiment: PBMC TLR2 Induced IL-6 Assay. The test is classed as cell-based, human. The settings on record: human PBMCs, 10 μg/ml lipoteichoic acid for 5 hours, IL-6 by ELISA; for pIC50: value without asterisk, read-out: Cell IC50; for pEC50: EC50 determinations are indicated with an asterisk, read-out: Cell EC50 (asterisk). In short, it runs like this: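 IL-6 ELISA of supernatants after a 5 h challenge with the TLR2 agonist lipoteichoic acid (10 μg/ml). Before stimulation, human PBMCs (250000 cells/well; RPMI, 10% heat-inactivated FCS) received compound for 30 min at 37° C. Values given as IC50 or EC50.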
(In an ELISA, binding on a coated surface is turned into a signal by an enzyme label.)

pEC50, pIC50: −log10 of the molar value. Read-outs that look alike come from different tables or passages of the source.

Chain of IRAK4 (Q9NWZ3 whole entry, species assumed): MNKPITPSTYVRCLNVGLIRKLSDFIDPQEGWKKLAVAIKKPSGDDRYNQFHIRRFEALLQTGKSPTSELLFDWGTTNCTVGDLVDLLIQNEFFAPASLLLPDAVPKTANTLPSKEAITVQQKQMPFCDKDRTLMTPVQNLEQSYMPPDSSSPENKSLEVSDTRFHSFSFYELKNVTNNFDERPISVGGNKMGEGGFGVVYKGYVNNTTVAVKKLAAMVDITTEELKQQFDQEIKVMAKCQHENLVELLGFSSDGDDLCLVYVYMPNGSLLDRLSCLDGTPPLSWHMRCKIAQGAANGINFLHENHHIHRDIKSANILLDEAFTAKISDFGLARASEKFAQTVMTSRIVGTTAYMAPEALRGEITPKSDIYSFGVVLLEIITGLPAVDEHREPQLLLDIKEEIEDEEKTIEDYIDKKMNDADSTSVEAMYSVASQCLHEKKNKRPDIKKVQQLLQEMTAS

Consider `CC(C)(O)[C@H](F)CNC(=O)c1cnc(Nc2nc3ccnn3cc2F)cc1NC1CCCCC1F` (some centres unmarked) [Example 479], for which the pIC50 in test [1] was 8.37; in test [2] (Homo sapiens, PBMC, 5 h), 6.33.

For the molecule `CC(C)(F)CNc1cc(Nc2ccn3nccc3n2)ncc1C(=O)NC[C@@H](F)C(C)(C)O` [Example 253], the negative logarithm of the IC50 (pIC50) in test [1] was 8.28; in test [2] (Homo sapiens, PBMC, 5 h), 6.51.

`CC(C)(O)[C@H](F)CNC(=O)c1cnc(Nc2ccc3ncoc3c2)cc1NCC(F)(F)F` [Example 110]: the pIC50 was 7.90 in test [1] and 6.14 in test [2] (Homo sapiens, PBMC, 5 h).

Turning to `CCOC(=O)c1cn2c(n1)sc1cc(Nc3cc(NC4CCCC4)c(C(=O)NC)cn3)ccc12` [Example 3], the negative-log IC50 (pIC50) in test [1] is 7.77; in test [2] (Homo sapiens, PBMC, 5 h) it was 6.74.

As to `CC(C)(O)[C@H](F)CNC(=O)c1cnc(Nc2ccc3ncsc3c2)cc1NCCc1ccccc1` [Example 165], the pIC50 in test [1] was 8.05; in test [2] (Homo sapiens, PBMC, 5 h), 6.41.

As for `CC(C)C(O)[C@H](F)CNC(=O)c1cnc(Nc2ccc3ncsc3c2)cc1NC1CC1` (some centres unmarked) [Example 26], the values for the pIC50 in test [1] and in test [2] were 8.14 and 6.92, respectively.

Turning to `O=C(NC1CCC(O)CC1)c1cnc(Nc2ccc3nccn3n2)cc1NC1CCC1` (centres unmarked) [Example 282], the pIC50 in test [1] was 7.94; in test [2] (Homo sapiens, PBMC, 5 h), 6.34.

Turning to `CC(C)(O)[C@H](F)CNC(=O)c1cnc(Nc2ccc3nccnc3c2)cc1NC1CC2CCC1C2` (some centres unmarked) [Example 95], the negative-log IC50 (pIC50) in test [1] was 8.72; in test [2] (Homo sapiens, PBMC, 5 h), 7.24.

Take `CC(C)(F)CNc1cc(Nc2ccc3ncccc3n2)ncc1C(=O)NC[C@@H](F)C(C)(C)O` [Example 134]: the pIC50 in test [1] was 8.06; in test [2] (Homo sapiens, PBMC, 5 h) it was 6.35.

For the molecule `CC(C)(O)[C@H](F)CNC(=O)c1cnc(Nc2ccn3nccc3c2)cc1NC1CC1` [Example 92], the negative logarithm of the IC50 (pIC50) in test [1] is 8.32; in test [2] (Homo sapiens, PBMC, 5 h) it was 6.75.

As to `CC(C)Nc1cc(Nc2ccc3ncsc3c2)ncc1C(=O)N[C@H]1CC[C@H](N)CC1` [Example 203], the pIC50 was 8.47 in test [1] and 6.51 in test [2] (Homo sapiens, PBMC, 5 h).

For `O=C(NC1CCC(O)CC1)c1cnc(Nc2ccc3ncsc3c2)cc1NC1CCCC1F` (centres unmarked) [Example 353], the pIC50 was 8.54 in test [1] and 6.95 in test [2].

On to `CC(C)Nc1cc(Nc2ccc3nonc3c2)ncc1C(=O)NC[C@@H](F)C(C)(C)O` [Example 45], for which the pIC50 was 8.12 in test [1] and 6.05 in test [2] (Homo sapiens, PBMC, 5 h).

For `CC(C)(O)[C@H](F)CNC(=O)c1cnc(Nc2ccc3ncsc3c2)cc1Nc1ccc(OC(F)F)cc1` [Example 51], the pIC50 in test [1] was 8.43; in test [2] (Homo sapiens, PBMC, 5 h) it was 6.48.

For the molecule `Cc1cn2nccc2nc1Nc1cc(NC2CCOCC2)c(C(=O)NC[C@@H](F)C(C)(C)O)cn1` [Example 482], in test [1], the negative logarithm of the IC50 (pIC50) was 7.99. In addition, the pEC50 in test [2] (Homo sapiens, PBMC, 5 h) was 6.60.

Take `CC(C)(O)[C@H](F)CNC(=O)c1cnc(Nc2nc3scnc3cc2F)cc1NC1CCCC1F` (some centres unmarked) [Example 461]: the pIC50 in test [1] is 8.70; in test [2] (Homo sapiens, PBMC, 5 h) it was 6.83.

Turning to `CC(C)Nc1cc(Nc2ccc3ncsc3c2)ncc1C(=O)NCC[C@@H](C)NC(=O)[C@@H]1CC[C@H](F)C1` [Example 198], the pIC50 was 8.59 in test [1] and 6.51 in test [2] (Homo sapiens, PBMC, 5 h).

For `CC(C)(O)[C@H](F)CNC(=O)c1cnc(Nc2ccc3ncsc3c2)cc1NC1C2CCCC21` (some centres unmarked) [Example 108], the pIC50 in test [1] was 8.64; in test [2] (Homo sapiens, PBMC, 5 h), 6.29.

`CC(C)Nc1cc(Nc2ccc3ncsc3c2)ncc1C(=O)NCC[C@@H](C)NC(=O)Cn1ccnn1` [Example 193]: the negative logarithm of the IC50 (pIC50) in test [1] was 8.51; in test [2] (Homo sapiens, PBMC, 5 h), 6.46.

In the case of `CC(C)(F)CNc1cc(Nc2ccc3ncccc3c2)ncc1C(=O)NC[C@@H](F)C(C)(C)O` [Example 127], the negative logarithm of the IC50 (pIC50) in test [1] was 8.39; in test [2] (Homo sapiens, PBMC, 5 h) it was 6.33.

As for `CC(C)(O)[C@H](F)CNC(=O)c1cnc(Nc2ccc3ncsc3n2)cc1NCC(F)(F)F` [Example 310], the negative-log IC50 (pIC50) in test [1] was 8.72; in test [2] (Homo sapiens, PBMC, 5 h) it was 6.76.

For the molecule `CC(C)(O)[C@H](F)CNC(=O)c1cnc(Nc2ccc3nccnc3c2)cc1NC1CCCC1F` (some centres unmarked) [Example 348], the pIC50 is 8.17 in test [1] and 6.25 in test [2] (Homo sapiens, PBMC, 5 h).

Turning to `CC(C)Nc1cc(Nc2ccn3ncc(Cl)c3n2)ncc1C(=O)NC[C@@H](F)C(C)(C)O` [Example 243], the values for the pIC50 in test [1] and in test [2] were 8.26 and 6.25, respectively.

As to `CCNc1cc(Nc2ccc3ncc(F)cc3n2)ncc1C(=O)NC[C@@H](F)C(C)(C)O` [Example 437], the pIC50 in test [1] was 8.31; in test [2] (Homo sapiens, PBMC, 5 h) it was 6.67.

As to `CCNC(=O)c1cnc(Nc2ccc3ncsc3c2)cc1N[C@@H](c1ccccc1)[C@H](O)CO` [Example 144], the pIC50 in test [1] is 8.13; in test [2] (Homo sapiens, PBMC, 5 h), 6.70.

Take `CC(C)(O)[C@H](F)CNC(=O)c1cnc(Nc2cnc3[nH]ccc3c2)cc1NC1CC1` [Example 434]: the pIC50 in test [1] was 8.19; in test [2] (Homo sapiens, PBMC, 5 h), 7.28.

`O=C(NCCN1CCOCC1)c1cnc(Nc2ccc3ncsc3c2)cc1NC1CCCC1` [Example 154]: the negative-log IC50 (pIC50) in test [1] is 8.17; in test [2] (Homo sapiens, PBMC, 5 h), 6.27.

Consider `CC(C)NC(=O)N[C@H](C)CCNC(=O)c1cnc(Nc2ccc3ncsc3c2)cc1NC(C)C` [Example 177], for which the negative logarithm of the IC50 (pIC50) in test [1] was 8.77; in test [2] (Homo sapiens, PBMC, 5 h), 6.72.

`CC(C)Nc1cc(Nc2ccc3ncsc3n2)ncc1C(=O)NC[C@@H](F)C(C)(C)O` [Example 309]: the negative logarithm of the IC50 (pIC50) was 8.72 in test [1] and 7.21 in test [2] (Homo sapiens, PBMC, 5 h).

As to `CNC(=O)[C@H]1CC[C@H](NC(=O)c2cnc(Nc3ccc4ncsc4n3)cc2NC2CCOCC2)CC1` [Example 510], the pIC50 in test [1] is 8.82. In test [2] (Homo sapiens, PBMC, 5 h), the negative-log EC50 (pEC50) is 7.55.

On to `CC(C)(O)[C@H](F)CNC(=O)c1cnc(Nc2ccc3ncccc3n2)cc1NC1CC1` [Example 122], for which the negative-log IC50 (pIC50) in test [1] is 8.38; in test [2] (Homo sapiens, PBMC, 5 h), 6.68.

For the molecule `CC(O)[C@H](F)CNC(=O)c1cnc(Nc2ccc3ncsc3c2)cc1NC1CCCC1` (some centres unmarked) [Example 29], the negative-log IC50 (pIC50) in test [1] is 8.04; in test [2], 6.89.

With `CC(C)(O)[C@H](F)CNC(=O)c1cnc(Nc2ccc3ncsc3c2)cc1N[C@H]1CCC(CCO)C1` (some centres unmarked) [Example 66], the values for the negative-log IC50 (pIC50) in test [1] and in test [2] were 8.64 and 7.24, respectively.

As for `CC(C)(O)[C@H](F)CNC(=O)c1cnc(Nc2ccc3ncsc3c2)cc1NC1CCCOC1` (some centres unmarked) [Example 53], the pIC50 in test [1] was 8.27; in test [2] (Homo sapiens, PBMC, 5 h) it was 6.64.

For the molecule `CC(C)(C)CNc1cc(Nc2ccc3nccnc3c2)ncc1C(=O)NC[C@@H](F)C(C)(C)O` [Example 103], the pIC50 in test [1] was 7.87; in test [2] (Homo sapiens, PBMC, 5 h), 6.39.

For the molecule `CC(C)(O)[C@H](F)CNC(=O)c1cnc(Nc2ccc3ncsc3c2)cc1NC1CCSCC1` [Example 384], the pIC50 in test [1] was 8.46; in test [2] (Homo sapiens, PBMC, 5 h), 6.74.

Consider `CC(C)(O)c1cnc(Nc2cc(Nc3nc4ccnn4cc3F)ncc2C(=O)NC[C@@H](F)C(C)(C)O)s1` [Example 453], for which the pIC50 in test [1] was 8.59; in test [2] (Homo sapiens, PBMC, 5 h) it was 6.08.

For the molecule `CC(C)Nc1cc(Nc2ccc3ncoc3c2)ncc1C(=O)NC[C@@H](F)C(C)(C)O` [Example 130], the pIC50 was 8.59 in test [1] and 6.64 in test [2] (Homo sapiens, PBMC, 5 h).

As to `CCC(C)Nc1cc(Nc2ccn3nccc3n2)ncc1C(=O)NC[C@@H](F)C(C)(C)O` (some centres unmarked) [Example 388], the pIC50 is 8.18 in test [1] and 6.63 in test [2].

Take `CC(F)CNc1cc(Nc2ccc3ncsc3c2)ncc1C(=O)NC[C@@H](F)C(C)(C)O` (some centres unmarked) [Example 450]: the negative logarithm of the IC50 (pIC50) in test [1] was 8.77; in test [2] (Homo sapiens, PBMC, 5 h), 6.66.

Turning to `CC(C)(O)[C@H](F)CNC(=O)c1cnc(Nc2ccc3ncsc3c2)cc1NC12CCC(NC(=O)c3ccccc3)(CC1)C2` [Example 394], the pIC50 in test [1] is 7.99; in test [2] (Homo sapiens, PBMC, 5 h) it was 6.51.

With `CC(C)(O)[C@H](F)CNC(=O)c1cnc(Nc2ccc3nccn3n2)cc1NC1CCC(F)C1` (some centres unmarked) [Example 281], the values for the pIC50 in test [1] and in test [2] were 8.92 and 6.45, respectively.

On to `CC(C)(F)CNc1cc(Nc2ccn3ncc(F)c3n2)ncc1C(=O)NC[C@@H](F)C(C)(C)O` [Example 257], for which the pIC50 in test [1] was 8.51; in test [2] (Homo sapiens, PBMC, 5 h) it was 6.49.

Take `CC(C)(F)CNc1cc(Nc2ccn3nccc3c2)ncc1C(=O)NC[C@@H](F)C(C)(C)O` [Example 294]: the negative-log IC50 (pIC50) in test [1] is 8.33; in test [2] (Homo sapiens, PBMC, 5 h), 6.38.

As to `CC(C)(O)[C@H](F)CNC(=O)c1cnc(Nc2ccc3ncoc3c2)cc1N[C@@H]1CCCC1F` (some centres unmarked) [Example 355], the pIC50 is 8.66 in test [1] and 6.63 in test [2].

Consider `CC(C)(O)[C@H](F)CNC(=O)c1cnc(Nc2ccn3ncc(F)c3n2)cc1NC1CC1` [Example 251], for which the negative-log IC50 (pIC50) in test [1] was 8.49; in test [2] (Homo sapiens, PBMC, 5 h), 6.43.

`CC(C)(O)[C@H](F)CNC(=O)c1cnc(Nc2nc3scnc3cc2F)cc1NC1CCCC1F` (some centres unmarked) [Example 462]: the pIC50 in test [1] is 8.77; in test [2], 6.94.

With `Cc1nc2cc(F)c(Nc3cc(NC4CCCC4F)c(C(=O)NC[C@@H](F)C(C)(C)O)cn3)cc2s1` (some centres unmarked) [Example 347], the negative-log IC50 (pIC50) was 8.49 in test [1] and 6.49 in test [2] (Homo sapiens, PBMC, 5 h).

Take `Cc1cc2nc(Nc3cc(NC4CCC(F)C4)c(C(=O)NC[C@@H](F)C(C)(C)O)cn3)ccn2n1` (single isomer, unassigned) [Example 381]: the pIC50 in test [1] is 8.21; in test [2] (Homo sapiens, PBMC, 5 h), 6.42.

Usually pIC50 stands for the negative decadic logarithm of the IC50, by convention in mol/L. Usually pEC50 stands for the negative decadic logarithm of the EC50, by convention in mol/L.
